Results as given in patent US20040259888A1, “Novel 4-aminofuropyrimidines and the use thereof” (priority 2001, published 2004).

Row | melting point [°C] | SMILES
1 | 156 to 157 | COc1cc(OC)cc(-c2oc3ncnc(N4CCN(C)CC4)c3c2-c2ccccc2)c1 [Example 113]
2 | 208 to 209 | CN1CCN(c2ncnc3oc(-c4ccc(NC5CCCCC5)nc4)c(-c4ccccc4)c23)CC1 [Example 125]
3 | 156 to 158 | OCCN(Cc1ccccc1)c1ncnc2oc(-c3ccc(F)cc3)c(-c3ccc(F)cc3)c12 [Example 177]
4 | 180 to 182 | COc1ccc(-c2oc3ncnc(NC4CCCCCC4)c3c2-c2ccc(F)cc2)cc1OC [Example 115]
5 | > 250 | CN1CCN(c2ncnc3oc(-c4ccc(NC(=O)c5cccnc5)cc4)c(-c4ccc(F)cc4)c23)CC1 [Example 70]
6 | > 250 | CN1CCN(c2ncnc3oc(-c4ccc([N+](=O)[O-])cc4)c(-c4ccc(F)cc4)c23)CC1 [Example 3, 5-(4-Fluorophenyl)-4-(4-methyl-1-piperazinyl)-6-(4-nitrophenyl)furo[2,3-d]pyrimidine]
7 | 173 to 175 | CN1CCN(c2ncnc3oc(-c4ccc(Cl)nc4)c(-c4ccccc4)c23)CC1 [Example 94]
8 | 161 to 163 | CN1CCN(c2ncnc3oc(-c4ccc(NCc5ccccc5)cc4)c(-c4ccccc4)c23)CC1 [Example 75]
9 | > 250 | COC(=O)c1ccc(C(=O)Nc2ccc(-c3oc4ncnc(N5CCN(C)CC5)c4c3-c3ccc(F)cc3)cc2)cc1 [Example 88]
10 | 148 to 150 | COc1ccc(-c2oc3ncnc(N4CCCCCC4)c3c2-c2ccc(F)cc2)cc1OC [Example 141]
11 | 176 to 178 | COc1ccc(-c2oc3ncnc(N4CCC(O)CC4)c3c2-c2ccccc2)cc1OC [Example 111]
12 | 153 to 154 | COc1cc(OC)cc(-c2oc3ncnc(NC4CCCC4)c3c2-c2ccccc2)c1 [Example 135]
13 | 161 to 163 | COc1cc(OC)cc(-c2oc3ncnc(N4CCN(CCO)CC4)c3c2-c2ccc(F)cc2)c1 [Example 83]
14 | 180 to 181 | CN1CCC(N(C)c2ncnc3oc(-c4ccc(F)cc4)c(-c4ccc(F)cc4)c23)CC1
15 | 176 to 177 | CN1CCN(c2ccc(-c3oc4ncnc(N5CCN(C)CC5)c4c3-c3ccccc3)cn2)CC1 [Example 173]
16 | > 250 | COc1ccc(-c2oc3ncnc(Nc4ccncc4)c3c2-c2ccccc2)cc1OC [Example 172]
17 | 125 to 126 | CCN(CC)c1ncnc2oc(-c3ccc(OC)c(OC)c3)c(-c3ccccc3)c12 [Example 63]
18 | 131 to 133 | COc1cc(OC)cc(-c2oc3ncnc(NC(CO)CO)c3c2-c2ccccc2)c1 [Example 108]
19 | > 250 | CN1CCN(c2ncnc3oc(-c4ccc(NC(=O)C5CCCO5)cc4)c(-c4ccc(F)cc4)c23)CC1 (stereo not shown) [Example 49]
20 | 255 to 257 | CN1CCN(c2ncnc3oc(-c4ccc(N5CCOCC5)nc4)c(-c4ccccc4)c23)CC1 [Example 7, 4-(4-Methyl-1-piperazinyl)-6-[N-(4-morpholinyl)-3-pyridinyl]-5-phenylfuro[2,3-d]pyrimidine]

Row | melting point [°C] | SMILES
21 | 250 to 252 | CC(=O)NC(C)C(=O)Nc1ccc(-c2oc3ncnc(N4CCOCC4)c3c2-c2ccc(F)cc2)cc1 (stereo not shown) [Example 55]
22 | 156 to 158 | COc1ccc(-c2oc3ncnc(N4CCN(CCO)CC4)c3c2-c2ccc(F)cc2)cc1OC [Example 39]
23 | 210 to 212 | COc1ccc(-c2oc3ncnc(N4CCN(c5ccccn5)CC4)c3c2-c2ccc(F)cc2)cc1OC [Example 114]
24 | 170 to 172 | COc1cc(OC)cc(-c2oc3ncnc(NC4CCCCCC4)c3c2-c2ccc(F)cc2)c1 [Example 69]
25 | 137 to 139 | COc1ccc(-c2oc3ncnc(N(CCO)CCO)c3c2-c2ccccc2)cc1OC [Example 159]
26 | 181 to 182 | COc1ccc(-c2c(-c3ccc(OC)c(OC)c3)oc3ncnc(NC4CCCCC4)c23)cc1 [Example 109]
27 | > 250 | COc1ccc(-c2oc3ncnc(N4CCC(C(N)=O)CC4)c3c2-c2ccccc2)cc1OC [Example 154]
28 | 168 to 169 | COc1ccc(-c2oc3ncnc(N4CCN(C)CC4)c3c2-c2ccc(F)cc2)cc1OC [Example 53]
29 | 152 to 153 | COc1cc(OC)cc(-c2oc3ncnc(N4CCCCC4)c3c2-c2ccccc2)c1 [Example 2, 6-(3,5-Dimethoxyphenyl)-5-phenyl-4-(1-piperidinyl)furo[2,3-d]pyrimidine]
30 | 211 to 213 | COc1ccc(-c2oc3ncnc(N4CCOCC4)c3c2-c2ccc(F)cc2)cc1OC [Example 116]
31 | 252 to 253 | COc1ccc(C(=O)Nc2ccc(-c3oc4ncnc(N5CCN(C)CC5)c4c3-c3ccc(F)cc3)cc2)cc1 [Example 54]
32 | 201 to 202 | O=C(Nc1ccc(-c2oc3ncnc(N4CCOCC4)c3c2-c2ccc(F)cc2)cc1)C1CCCO1 (stereo not shown) [Example 71]
33 | 152 to 153 | COc1cc(OC)cc(-c2oc3ncnc(NCCc4cccs4)c3c2-c2ccccc2)c1 [Example 134]
34 | 235 to 237 | COc1ccc(-c2oc3ncnc(N4CCC(C(N)=O)CC4)c3c2-c2ccc(F)cc2)cc1OC [Example 51]
35 | > 250 | O=C(Nc1ccc(-c2oc3ncnc(N4CCOCC4)c3c2-c2ccc(F)cc2)cc1)c1ccc([N+](=O)[O-])cc1 [Example 47]
36 | 151 to 152 | COc1cc(OC)cc(-c2oc3ncnc(NC4CCCCCC4)c3c2-c2ccccc2)c1 [Example 1, N-Cycloheptyl-6-(3,5-dimethoxyphenyl)-5-phenylfuro[2,3-d]pyrimidine-4-amine]
37 | > 250 | CN1CCN(c2ncnc3oc(-c4ccc(NC(=O)c5cccc([N+](=O)[O-])c5)cc4)c(-c4ccc(F)cc4)c23)CC1 [Example 48]
38 | 188 to 189 | COc1ccc(-c2oc3ncnc(N4CCN(CCO)CC4)c3c2-c2ccccc2)cc1OC [Example 112]
39 | 180 to 181 | COc1ccc(-c2oc3ncnc(N4CCN(C(C)C)CC4)c3c2-c2ccc(F)cc2)cc1OC [Example 64]
40 | 132 to 134 | COc1cc(OC)cc(-c2oc3ncnc(N(C)CCO)c3c2-c2ccccc2)c1 [Example 157]
